In general, Kd refers to the concentration at which binding is half-saturated. High values mean weaker binding, low ones tighter binding.

Like-named read-outs stand apart in the source and are kept apart here.

In one assay the target is PiB. The assay is described as follows: UV-visible absorption titration, single-site global fit. The format is binding, synthetic construct.
Another assay addresses PiB′. The description is as above. The format is binding, synthetic construct.

In the case of `CNCc1ccc(-c2cc3cc(F)cc(C(N)=O)c3o2)cc1` [mefuparib], the Kd on PiB worked out at 0.19 µM; on PiB′ (PDB 8TNB is labelled mefuparib-bound PiB in b31 but PiB′ in b20 and b22), 0.35 µM.

Take `NC(=O)c1cccc2cn(-c3ccc([C@@H]4CCCNC4)cc3)nc12` [niraparib]: the Kd on PiB was 0.6 µM; on PiB′ it was 0.55 µM.

Source of the values: publication PMC11290694 (Science (New York, N.Y.), 2024).
